Peptide text beside a SMILES is read from it.
Assays:
[1] = system: Rat Cornea Neovascularization; test: Rat cornea neovascularization (bFGF/Hydron pellet implantation); type: in vivo, Sprague Dawley rats; details: day seven post-implantation
Method: […] Louis, MO) were pipetted into the tip of a sterile Teflon rod. After drying for 1-2 hours, the pellets were stored at 4 °C.
A small (about 2 mm) radial incision at 1 mm from the center of the cornea was performed in anesthetized Sprague Dawley rats. With a curved iris spatula, an intrastromal pocket was made to a distance of 1 mm from the limbus-the circular blood vessels that surround the cornea. A single pellet was implanted. Antibiotic ointment (neosporin) was applied post surgery to the operated eye to prevent infection and to decrease inflammation.
At day seven post-implantation, neovascularization was measured through a slitlamp biomicroscopy (Nikon NS-1), connected to an image analysis system (Leica Qwin). The response was calculated by colorimetrically detecting the area of new blood vessels, and calculating the new vessel surface area in µm^2.

[2] = system: Human Microvascular Endothelial Cells; test: Human microvascular endothelial cell (HMVEC) migration assay, modified Boyden chamber; type: cell-based; details: activators 15 ng/ml bFGF/VEGF, 4 hours at 37 °C
Method: The human microvascular endothelial (HMVEC) migration assay was run according to the procedure of S. S. Tolsma, O. V. Volpert, D. J. Good, W. F. Frazier, P. J. Polverini and N. Bouck, J. Cell Biol. 122, 497-511 (1993).
The HMVEC migration assay was carried out using Human Microvascular Endothelial Cells-Dermal (single donor) and Human Microvascular Endothelial Cells, (neonatal). The BCE or HMVEC cells were starved overnight in DME containing 0.1 % bovine serum albumin (BSA). Cells were then harvested with trypsin and resuspended in DME with 0.1 % BSA at a concentration of 1.5 X 10^6 cells per ml. Cells were added to the bottom of a 48 well modified Boyden chamber (Nucleopore Corporation, Cabin John, MD). The chamber was assembled and inverted, and cells were allowed to attach for 2 hours at 37 °C to polycarbonate chemotaxis membranes (5 µm pore size) that had been soaked in 0.1% gelatin overnight and dried. The chamber was then reinverted, and test substances (total volume of 50 µl), including activators, 15 ng/ml bFGF/VEGF, were added to the wells of the upper chamber. The apparatus was incubated for 4 hours at 37 °C. Membranes were recovered, fixed and stained (Diff Quick, Fisher Scientific) and the number of cells that had migrated to the upper chamber per […] high power fields counted. Background migration to DME + 0.1 BSA was subtracted and the data reported as the number of cells migrated per 10 high power fields (400X) or, when results from multiple experiments were combined, as the percent inhibition of migration compared to a positive control.

## CCC[C@H](NC(=O)[C@@H](NC(=O)[C@H](NC(=O)[C@@H](NC(=O)CNC(=O)CN(C)C(C)=O)C(C)C)[C@H](C)CC)[C@@H](C)O)C(=O)N[C@H](C(=O)N[C@@H](CCCNC(=N)N)C(=O)N1CCC[C@H]1C(=O)NCC)[C@@H](C)CC [Example 1, N-Ac-Sar-Gly-Val-D-Ile-Thr-Nva-Ile-Arg-ProNHCH2CH3] (HELM PEPTIDE1{[ac].[Sar].G.V.[dI].T.[Nva].I.R.P.[CCN[*:1]]}$$$$V2.0)
[1]; dose 5 µM in pellet with 100 ng bFGF, 5 corneas
  % Inhibition: 74.8%
[1]; dose 6 µM in pellet with 100 ng bFGF, 4 corneas
  % Inhibition: 71.5%
[1]; dose 10 µM in pellet with 100 ng bFGF, 6 corneas
  % Inhibition: 92.6%

## CCC[C@H](NC(=O)[C@@H](NC(=O)[C@H](NC(=O)[C@@H](NC(=O)CNC(=O)CN(C)C(C)=O)C(C)C)[C@H](C)CC)[C@@H](C)O)C(=O)N[C@H](C(=O)N[C@@H](CCCNC(=N)N)C(=O)N1CCC[C@H]1C(=O)NC)[C@@H](C)CC [Example 3, N-Ac-Sar-Gly-Val-D-Ile-Thr-Nva-Ile-Arg-ProNHCH3] (HELM PEPTIDE1{[ac].[Sar].G.V.[dI].T.[Nva].I.R.P.[CN[*:1]]}$$$$V2.0)
[2]
  % Inhib. @ 20 nM: 56.0%

## CCC[C@H](NC(=O)[C@@H](NC(=O)[C@H](NC(=O)[C@@H](NC(=O)CNC(=O)CN(C)C(C)=O)C(C)C)[C@H](C)CC)[C@@H](C)O)C(=O)N[C@H](C(=O)N[C@@H](CCCNC(=N)N)C(=O)N1CCC[C@H]1C(=O)NCCC1CCCCC1)[C@@H](C)CC [Example 12, N-Ac-Sar-Gly-Val-D-Ile-Thr-Nva-Ile-Arg-ProNHCH2CH2-cyclohexyl] (HELM PEPTIDE1{[ac].[Sar].G.V.[dI].T.[Nva].I.R.P.[C1CCC(CCN[*:1])CC1]}$$$$V2.0)
[2]
  % Inhib. @ 20 nM: 55.8%

## CCCCCCCC[C@H](NC(=O)[C@@H](NC(=O)[C@H](NC(=O)[C@@H](NC(=O)CNC(=O)CN(C)C(C)=O)C(C)C)[C@H](C)CC)[C@@H](C)O)C(=O)N[C@H](C(=O)N[C@@H](CCCNC(=N)N)C(=O)N1CCC[C@H]1C(=O)NCC)[C@@H](C)CC [Example 50, N-Ac-Sar-Gly-Val-D-Ile-Thr-Octylgly-Ile-Arg-ProNHCH2CH3] (HELM PEPTIDE1{[ac].[Sar].G.V.[dI].T.[CCCCCCCC[C@H](N[*:1])C(=O)[*:2]].I.R.P.[CCN[*:1]]}$$$$V2.0)
[2]
  % Inhib. @ 20 nM: 71.6%

## CCC[C@H](NC(=O)[C@@H](NC(=O)[C@H](NC(=O)[C@@H](NC(=O)CNC(=O)CN(C)C(=O)CCCCCNC(C)=O)C(C)C)[C@H](C)CC)[C@@H](C)O)C(=O)N[C@H](C(=O)N[C@@H](CCCNC(=N)N)C(=O)N1CCC[C@H]1C(=O)NCC)[C@@H](C)CC [Example 63, N-[6-N'-Acetyl-(CH2)5C(O)]-Sar-Gly-Val-D-Ile-Thr-Nva-Ile-Arg-ProNHCH2CH3] (HELM PEPTIDE1{[ac].[O=C(CCCCCN[*:1])[*:2]].[Sar].G.V.[dI].T.[Nva].I.R.P.[CCN[*:1]]}$$$$V2.0)
[2]
  % Inhib. @ 10 nM: 82.4%

## N-Ac-Sar-Gly-Val-D-Ile-Thr-Nva-Ile-Arg-ProNHethyl-1-(R)-cyclohexyl [Example 8]
[2]
  % Inhib. @ 10 nM: 88.2%

## N-Cyclohexylacetyl-Sar-Gly-Val-D-Ile-Tlu-Nva-Ile-Arg-ProNHCH2CH3 [Example 52]
[2]
  % Inhib. @ 20 nM: 46.5%

From EP1078002B1, “PEPTIDE ANTIANGIOGENIC DRUGS” (ABBOTT LABORATORIES, priority 1998, dated 1999)
